{"source": "patent US20230210831A1", "about": "“CHRONIC KIDNEY DISEASE TREATMENT OR PREVENTION METHOD” (Japan Tobacco Inc., priority 2019, published 2023)", "format_in_all_cases": "cell-based", "key": {"[1]": {"test_system": "Salmonella typhimurium TA1537", "assay": "Ames test (reverse mutation test), TA1537", "procedure": "(§1) The solvent used herein was dimethyl sulfoxide (DMSO, 100 µL/plate).\n(§2) The mixtures were preincubated at 37° C. for 20 minutes while shaking. […] Two plates per treatment were used."}, "[2]": {"test_system": "Salmonella typhimurium TA98", "assay": "Ames test (reverse mutation test), TA98", "procedure": "as §1, §2"}, "[3]": {"test_system": "Salmonella typhimurium TA1535", "assay": "Ames test (reverse mutation test), TA1535", "procedure": "as §1, §2"}, "Escherichia coli WP2uvrA": {"test_system": "Escherichia coli WP2uvrA", "assay": "Ames test (reverse mutation test), WP2uvrA", "procedure": "as §1, §2"}, "[4]": {"test_system": "Salmonella typhimurium TA100", "assay": "Ames test (reverse mutation test), TA100", "procedure": "as §1, §2"}}}
{"smiles": "Nc1cc(-c2cccc(OCC(F)(F)F)c2)n(-c2ccc(F)cc2)n1", "note": "[Metabolite E]", "values": [{"measurement": "Number of revertant colonies TA1537", "setting": "[1]; S9 Mix +, dose 2.3 µg/plate", "result": 65}, {"measurement": "Number of revertant colonies TA1537", "setting": "[1]; S9 Mix +, dose 6.9 µg/plate", "result": 227}, {"measurement": "Number of revertant colonies TA1537", "setting": "[1]; S9 Mix +, dose 21 µg/plate", "result": 180}, {"measurement": "Number of revertant colonies TA1537", "setting": "[1]; S9 Mix +, dose 62 µg/plate", "result": 102}, {"measurement": "Number of revertant colonies TA1537", "setting": "[1]; S9 Mix +, dose 185 µg/plate", "result": 85}, {"measurement": "Number of revertant colonies TA1537", "setting": "[1]; S9 Mix +, dose 556 µg/plate", "result": 0}, {"measurement": "Number of revertant colonies TA1537", "setting": "[1]; S9 Mix +, dose 1667 µg/plate", "result": 0}, {"measurement": "Number of revertant colonies TA1537", "setting": "[1]; S9 Mix +, dose 5000 µg/plate", "result": 0}, {"measurement": "Number of revertant colonies TA1537", "setting": "[1]; S9 Mix -, dose 2.3 µg/plate", "result": 17}, {"measurement": "Number of revertant colonies TA1537", "setting": "[1]; S9 Mix -, dose 6.9 µg/plate", "result": 20}, {"measurement": "Number of revertant colonies TA1537", "setting": "[1]; S9 Mix -, dose 21 µg/plate", "result": 16}, {"measurement": "Number of revertant colonies TA1537", "setting": "[1]; S9 Mix -, dose 62 µg/plate", "result": 11}, {"measurement": "Number of revertant colonies TA1537", "setting": "[1]; S9 Mix -, dose 185 µg/plate", "result": 3}, {"measurement": "Number of revertant colonies TA1537", "setting": "[1]; S9 Mix -, dose 556 µg/plate", "result": 0}, {"measurement": "Number of revertant colonies TA1537", "setting": "[1]; S9 Mix -, dose 1667 µg/plate", "result": 0}, {"measurement": "Number of revertant colonies TA1537", "setting": "[1]; S9 Mix -, dose 5000 µg/plate", "result": 0}, {"measurement": "potential to induce reverse mutations", "setting": "[1]; TA1537 with S9 mix", "result": "showed potential to induce reverse mutations"}, {"measurement": "potential to induce reverse mutations", "setting": "[1]; TA1537 without S9 mix", "result": "showed potential to induce reverse mutations"}, {"measurement": "Number of revertant colonies TA98", "setting": "[2]; S9 Mix +, dose 2.3 µg/plate", "result": 589}, {"measurement": "Number of revertant colonies TA98", "setting": "[2]; S9 Mix +, dose 6.9 µg/plate", "result": 1310}, {"measurement": "Number of revertant colonies TA98", "setting": "[2]; S9 Mix +, dose 21 µg/plate", "result": 1001}, {"measurement": "Number of revertant colonies TA98", "setting": "[2]; S9 Mix +, dose 62 µg/plate", "result": 490}, {"measurement": "Number of revertant colonies TA98", "setting": "[2]; S9 Mix +, dose 185 µg/plate", "result": 268}, {"measurement": "Number of revertant colonies TA98", "setting": "[2]; S9 Mix +, dose 556 µg/plate", "result": 77}, {"measurement": "Number of revertant colonies TA98", "setting": "[2]; S9 Mix +, dose 1667 µg/plate", "result": 15}, {"measurement": "Number of revertant colonies TA98", "setting": "[2]; S9 Mix +, dose 5000 µg/plate", "result": 12}, {"measurement": "Number of revertant colonies TA98", "setting": "[2]; S9 Mix -, dose 2.3 µg/plate", "result": 26}, {"measurement": "Number of revertant colonies TA98", "setting": "[2]; S9 Mix -, dose 6.9 µg/plate", "result": 27}, {"measurement": "Number of revertant colonies TA98", "setting": "[2]; S9 Mix -, dose 21 µg/plate", "result": 28}, {"measurement": "Number of revertant colonies TA98", "setting": "[2]; S9 Mix -, dose 62 µg/plate", "result": 32}, {"measurement": "Number of revertant colonies TA98", "setting": "[2]; S9 Mix -, dose 185 µg/plate", "result": 17}, {"measurement": "Number of revertant colonies TA98", "setting": "[2]; S9 Mix -, dose 556 µg/plate", "result": 12}, {"measurement": "Number of revertant colonies TA98", "setting": "[2]; S9 Mix -, dose 1667 µg/plate", "result": 6}, {"measurement": "Number of revertant colonies TA98", "setting": "[2]; S9 Mix -, dose 5000 µg/plate", "result": 2}, {"measurement": "potential to induce reverse mutations", "setting": "[2]; TA98 with S9 mix", "result": "showed potential to induce reverse mutations"}, {"measurement": "Number of revertant colonies TA1535", "setting": "[3]; S9 Mix +, dose 1667 µg/plate", "result": 0}, {"measurement": "Number of revertant colonies TA1535", "setting": "[3]; S9 Mix -, dose 556 µg/plate", "result": 0}, {"measurement": "Number of revertant colonies TA1535", "setting": "[3]; S9 Mix -, dose 1667 µg/plate", "result": 0}, {"measurement": "potential to induce reverse mutations", "setting": "[3]; TA1535 with S9 mix", "result": "showed potential to induce reverse mutations"}, {"measurement": "Number of revertant colonies WP2uvrA", "setting": "Escherichia coli WP2uvrA; S9 Mix +, dose 2.3 µg/plate", "result": 26}, {"measurement": "Number of revertant colonies WP2uvrA", "setting": "Escherichia coli WP2uvrA; S9 Mix +, dose 6.9 µg/plate", "result": 32}, {"measurement": "Number of revertant colonies WP2uvrA", "setting": "Escherichia coli WP2uvrA; S9 Mix +, dose 21 µg/plate", "result": 24}, {"measurement": "Number of revertant colonies WP2uvrA", "setting": "Escherichia coli WP2uvrA; S9 Mix +, dose 62 µg/plate", "result": 30}, {"measurement": "Number of revertant colonies WP2uvrA", "setting": "Escherichia coli WP2uvrA; S9 Mix +, dose 185 µg/plate", "result": 18}, {"measurement": "Number of revertant colonies WP2uvrA", "setting": "Escherichia coli WP2uvrA; S9 Mix +, dose 556 µg/plate", "result": 19}, {"measurement": "Number of revertant colonies WP2uvrA", "setting": "Escherichia coli WP2uvrA; S9 Mix +, dose 1667 µg/plate", "result": 13}, {"measurement": "Number of revertant colonies WP2uvrA", "setting": "Escherichia coli WP2uvrA; S9 Mix +, dose 5000 µg/plate", "result": 12}, {"measurement": "Number of revertant colonies WP2uvrA", "setting": "Escherichia coli WP2uvrA; S9 Mix -, dose 2.3 µg/plate", "result": 20}, {"measurement": "Number of revertant colonies WP2uvrA", "setting": "Escherichia coli WP2uvrA; S9 Mix -, dose 6.9 µg/plate", "result": 26}, {"measurement": "Number of revertant colonies WP2uvrA", "setting": "Escherichia coli WP2uvrA; S9 Mix -, dose 21 µg/plate", "result": 24}, {"measurement": "Number of revertant colonies WP2uvrA", "setting": "Escherichia coli WP2uvrA; S9 Mix -, dose 62 µg/plate", "result": 27}, {"measurement": "Number of revertant colonies WP2uvrA", "setting": "Escherichia coli WP2uvrA; S9 Mix -, dose 185 µg/plate", "result": 22}, {"measurement": "Number of revertant colonies WP2uvrA", "setting": "Escherichia coli WP2uvrA; S9 Mix -, dose 556 µg/plate", "result": 10}, {"measurement": "Number of revertant colonies WP2uvrA", "setting": "Escherichia coli WP2uvrA; S9 Mix -, dose 1667 µg/plate", "result": 15}, {"measurement": "Number of revertant colonies WP2uvrA", "setting": "Escherichia coli WP2uvrA; S9 Mix -, dose 5000 µg/plate", "result": 7}, {"measurement": "Number of revertant colonies TA100", "setting": "[4]; S9 Mix +, dose 2.3 µg/plate", "result": 1338}, {"measurement": "Number of revertant colonies TA100", "setting": "[4]; S9 Mix +, dose 6.9 µg/plate", "result": 2032}, {"measurement": "Number of revertant colonies TA100", "setting": "[4]; S9 Mix +, dose 21 µg/plate", "result": 2016}, {"measurement": "Number of revertant colonies TA100", "setting": "[4]; S9 Mix +, dose 62 µg/plate", "result": 2320}, {"measurement": "Number of revertant colonies TA100", "setting": "[4]; S9 Mix +, dose 185 µg/plate", "result": 1799}, {"measurement": "Number of revertant colonies TA100", "setting": "[4]; S9 Mix +, dose 556 µg/plate", "result": 1082}, {"measurement": "Number of revertant colonies TA100", "setting": "[4]; S9 Mix +, dose 1667 µg/plate", "result": 182}, {"measurement": "Number of revertant colonies TA100", "setting": "[4]; S9 Mix +, dose 5000 µg/plate", "result": 157}, {"measurement": "Number of revertant colonies TA100", "setting": "[4]; S9 Mix -, dose 2.3 µg/plate", "result": 110}, {"measurement": "Number of revertant colonies TA100", "setting": "[4]; S9 Mix -, dose 6.9 µg/plate", "result": 96}, {"measurement": "Number of revertant colonies TA100", "setting": "[4]; S9 Mix -, dose 21 µg/plate", "result": 96}, {"measurement": "Number of revertant colonies TA100", "setting": "[4]; S9 Mix -, dose 62 µg/plate", "result": 101}, {"measurement": "Number of revertant colonies TA100", "setting": "[4]; S9 Mix -, dose 185 µg/plate", "result": 75}, {"measurement": "Number of revertant colonies TA100", "setting": "[4]; S9 Mix -, dose 556 µg/plate", "result": 38}, {"measurement": "Number of revertant colonies TA100", "setting": "[4]; S9 Mix -, dose 1667 µg/plate", "result": 27}, {"measurement": "Number of revertant colonies TA100", "setting": "[4]; S9 Mix -, dose 5000 µg/plate", "result": 0}, {"measurement": "potential to induce reverse mutations", "setting": "[4]; TA100 with S9 mix", "result": "showed potential to induce reverse mutations"}]}
